Holding throughout (assay): NCI anticancer screen, dose series, 48 h
The subject of assay [1] is SK-MEL-28.
Assay [2] concerns SK-MEL-5.
Assay [3] concerns RPMI-8226.
The subject of assay [4] is OVCAR-5.
Assay [5] concerns EKVX.
The test system of assay [6] is UACC-257.
In assay [7] the test system is SN12C.
In assay [8] the test system is UACC-62.
Assay [9] concerns OVCAR-4.
The test system of assay [10] is HCT-15.
Assay [11] has as its system SF-268.
The subject of assay [12] is U-251.
Assay [13] concerns SW-620.
Assay [14] relates to SF-539.
The test system of assay [15] is KM12.
The subject of assay [16] is NCI-H522.
Assay [17] relates to SNB-19.
Assay [18] concerns DU-145.
In assay [19] the test system is NCI/ADR-RES.

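A five-concentration, 48-hour dose response in 96-well plates underlies each endpoint, interpolated linearly between surrounding concentrations. At the GI50, growth is halved.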 Calls of active or inactive are those of the source. Rule as the data show it: active = GI50 up to about 1.1 µM and inactive = higher.

`CC1=CCC(O)C=CC(C)C(O)C(C)C=C(C)C(=O)c2c(O)c(C)cc3c2C(=O)C(N)=C(NC(=O)/C=C\C=C/C=CC(C)C(O)CC1=O)C3=O` (centres undefined): the GI50 in assay [1], in [2], in assay [3], in assay [4], in [5] and in assay [6] was > 100 µM (inactive) each time. Moreover, the GI50 in assay [7] is > 100 µM (inactive); in assay [8], > 100 µM (inactive); in assay [9], > 100 µM (inactive); in assay [10], greater than 100 µM; in assay [11] it was > 100 µM (inactive); in [12] it was > 100 µM (inactive). Further, the GI50 was > 100 µM (inactive) in assay [13]; > 100 µM (inactive) in assay [14]; > 100 µM (inactive) in [15]; 19.5 µM (inactive) in [16]; > 100 µM (inactive) in assay [17].

For `CC(C)(/C=N/O)/[N+]([O-])=C/c1ccccc1`, the GI50 in assay [18], in assay [1], in assay [2], in assay [3], in assay [4] and in assay [5] was > 100 µM (inactive) throughout. Besides, the GI50 is > 100 µM (inactive) in assay [6]; > 100 µM (inactive) in assay [7]; > 100 µM (inactive) in assay [8]; > 100 µM (inactive) in assay [9]; greater than 100 µM in assay [10]; > 100 µM (inactive) in assay [11]. For the same compound, the GI50 in [12], in assay [19], in assay [13], in [14], in [15] and in assay [17] was > 100 µM (inactive) throughout.

In the case of `O=C(/C=C(\O)C(=O)O)/C=C(\O)c1ccc(Cl)cc1`, the GI50 in [1], in [2], in assay [3], in assay [4], in assay [5] and in [6] was > 100 µM (inactive) throughout. Further, the GI50 was > 100 µM (inactive) in assay [7]; > 100 µM (inactive) in assay [8]; > 100 µM (inactive) in assay [9]; greater than 100 µM in assay [10]; > 100 µM (inactive) in [11]; > 100 µM (inactive) in assay [12]. Besides, the GI50 in assay [13], in [14], in [15], in [16] and in [17] was > 100 µM (inactive) in each case.

As to `O=P(CN1CCOCC1)(c1ccccc1)c1ccccc1`, the GI50 in assay [1], in assay [2], in assay [3], in [4], in assay [5] and in assay [6] was > 100 µM (inactive) each time. The GI50 in assay [7] was > 100 µM (inactive); in assay [8], > 100 µM (inactive); in assay [9], > 100 µM (inactive); in assay [10], greater than 100 µM; in assay [11], > 100 µM (inactive); in assay [12], > 100 µM (inactive). The GI50 in assay [13], in assay [14], in assay [15], in [16] and in assay [17] was > 100 µM (inactive) each time.

`CCN(CC)C(=O)CNC(=O)OC(C)(C)C`: the GI50 in [1], in assay [2], in [3], in assay [4], in assay [5] and in assay [6] was > 100 µM (inactive) throughout. Besides, the GI50 in [7] is > 100 µM (inactive); in [8], > 100 µM (inactive); in [9] it was > 100 µM (inactive); in assay [10] it was greater than 100 µM; in assay [11], > 100 µM (inactive); in assay [12] it was > 100 µM (inactive). Also, the GI50 in assay [13], in assay [14], in [15], in [16] and in assay [17] was > 100 µM (inactive) throughout.

Regarding `O=C1c2c(O)cccc2C(C(=O)CCCCCC(=O)C2c3cccc(O)c3C(=O)c3c(O)cccc32)c2cccc(O)c21`, the GI50 in assay [1] was 0.804 µM (active); in assay [2], 0.555 µM (active); in [3], 0.741 µM (active); in assay [4] it was 3.22 µM (inactive); in assay [5] it was 0.957 µM (active); in assay [6], 0.755 µM (active). Further, the GI50 is 1.04 µM (active) in assay [7]; 1.12 µM (active) in [8]; 1.5 µM (inactive) in [9]; 1 µM in assay [10]; 1.04 µM (active) in assay [11]; 0.766 µM (active) in assay [12]. The GI50 in assay [13] was 1.09 µM (active); in assay [14] it was 0.537 µM (active); in assay [15] it was 1.07 µM (active); in [16], 0.638 µM (active); in [17], 0.973 µM (active).

Regarding `COC(=O)C(=O)C(C(=O)C=C(C)C)C(=O)C(=O)Nc1cc(C(F)(F)F)ccc1Cl` (centres undefined), the GI50 in [1] is > 100 µM (inactive); in assay [2], > 100 µM (inactive); in [3], 24.4 µM (inactive); in assay [4], > 100 µM (inactive); in [5], > 100 µM (inactive); in [6], 70.3 µM (inactive). Also, the GI50 in assay [7] is > 100 µM (inactive); in assay [8], > 100 µM (inactive); in assay [9] it was > 100 µM (inactive); in assay [10] it was greater than 100 µM; in assay [11], > 100 µM (inactive); in assay [12] it was > 100 µM (inactive). For the same compound, the GI50 in assay [14] is > 100 µM (inactive); in [15], > 100 µM (inactive); in assay [16], 57.5 µM (inactive); in [17] it was > 100 µM (inactive).

`O=[N+]([O-])c1ccc(Sc2c3ccccc3nc3ccccc23)cc1`: the GI50 in [1], in assay [2], in assay [3], in assay [4], in assay [5] and in [6] was > 100 µM (inactive) in each case. Besides, the GI50 in [7] is > 100 µM (inactive); in assay [8], > 100 µM (inactive); in [9] it was > 100 µM (inactive); in assay [10], greater than 100 µM; in [11] it was > 100 µM (inactive); in assay [12], > 100 µM (inactive). Moreover, the GI50 in [13] is > 100 µM (inactive); in assay [14] it was > 100 µM (inactive); in assay [15], > 100 µM (inactive); in assay [16], 74.1 µM (inactive); in assay [17], > 100 µM (inactive).

In the case of `CC(CN(C)C)C(=O)c1ccccc1` (centres undefined), the GI50 in assay [1] was > 41.7 µM (inactive); in [2] it was > 82.4 µM (inactive); in [3] it was 0.94 µM (active); in assay [4], 32.3 µM (inactive); in [5], > 50.7 µM (inactive); in [6], > 48.6 µM (inactive). For the same compound, the GI50 in assay [7] was 17.6 µM (inactive); in assay [8], 35.8 µM (inactive); in [9], > 41.1 µM (inactive); in assay [10], 16.6 µM; in assay [11] it was 30.3 µM (inactive); in assay [12], > 100 µM (inactive). The GI50 in assay [13] is 12.9 µM (inactive); in assay [14] it was 51.8 µM (inactive); in assay [15] it was 18.2 µM (inactive); in assay [16], 2.04 µM (inactive); in [17], > 77.3 µM (inactive).

For `CC(=O)c1cccc(NC(=O)C(=O)Nn2c(N)nnc2N)c1`, the GI50 in [1], in assay [2], in assay [3], in assay [4], in assay [5] and in [6] was > 100 µM (inactive) throughout. For the same compound, the GI50 in [7] is > 100 µM (inactive); in assay [8], > 100 µM (inactive); in [9], > 100 µM (inactive); in assay [10], greater than 100 µM; in assay [11], > 100 µM (inactive); in assay [12], > 100 µM (inactive). For the same compound, the GI50 in assay [13], in assay [14], in assay [15], in [16] and in [17] was > 100 µM (inactive) in each case.

Consider `Cc1cc(N(CCC#N)CCC#N)ccc1/N=N/c1ccc(Br)cc1`, for which the GI50 was > 100 µM (inactive) in assay [1]; 12.3 µM (inactive) in assay [2]; > 45.9 µM (inactive) in assay [3]; > 100 µM (inactive) in assay [4]; 26.8 µM (inactive) in assay [5]; > 100 µM (inactive) in assay [6]. Besides, the GI50 in [7] is > 36.8 µM (inactive); in assay [8], 9.31 µM (inactive); in [9], > 100 µM (inactive); in assay [10], 5.56 µM; in assay [11] it was 22.3 µM (inactive); in assay [12] it was 19.5 µM (inactive). Besides, the GI50 in assay [13] was > 48.6 µM (inactive); in [14], 17.8 µM (inactive); in assay [15] it was > 23.8 µM (inactive); in [16], 16.6 µM (inactive); in assay [17], 16.1 µM (inactive).

For `O=C1/C(=C/c2ccccc2)CN(C(=O)C(F)(F)F)C/C1=C\c1ccccc1`, the GI50 in assay [1] was 1.83 µM (inactive); in assay [2], 1.71 µM (inactive); in assay [3], 0.165 µM (active); in [4] it was 3.46 µM (inactive); in assay [5], > 10 µM (inactive); in assay [6] it was 1.66 µM (inactive). The GI50 in [7] is 1.7 µM (inactive); in assay [8] it was 1.84 µM (inactive); in [9], 2.44 µM (inactive); in assay [10], 2.03 µM; in assay [11] it was 3.94 µM (inactive); in [12], 1.57 µM (inactive). Also, the GI50 in assay [13] is 0.48 µM (active); in assay [14], 1.86 µM (inactive); in assay [15], 1.54 µM (inactive); in assay [16], 2.74 µM (inactive); in assay [17] it was 4.28 µM (inactive).
